Columns and labels:
MOR [1] = target: T1, MOR (Homo sapiens, UniProt P35372); conditions: in vitro; cited from earlier work
MOR [2] = target: T1, MOR; conditions: in vitro; cited from earlier work; remark: listed apart in the source
[3] = Mouse pharmacokinetic study, plasma and brain; assay type: in vivo, male Swiss Albino mice; conditions: mice
[4] = 50 mg/kg intraperitoneal injection

T1 sequence (P35372 whole entry): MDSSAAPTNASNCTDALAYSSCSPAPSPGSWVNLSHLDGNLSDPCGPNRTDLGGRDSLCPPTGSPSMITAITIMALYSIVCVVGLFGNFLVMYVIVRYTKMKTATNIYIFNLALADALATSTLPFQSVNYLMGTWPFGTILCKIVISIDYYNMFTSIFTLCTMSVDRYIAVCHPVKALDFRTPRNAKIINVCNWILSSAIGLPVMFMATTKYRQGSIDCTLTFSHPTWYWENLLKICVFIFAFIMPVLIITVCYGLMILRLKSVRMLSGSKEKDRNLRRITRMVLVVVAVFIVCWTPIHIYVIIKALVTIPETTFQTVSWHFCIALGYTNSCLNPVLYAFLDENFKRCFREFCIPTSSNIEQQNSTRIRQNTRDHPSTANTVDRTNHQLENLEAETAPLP

Structure (SMILES)	EMAX, activation of G protein signaling (MOR [1]) [%]	EMAX, recruiting β-arrestin (MOR [2]) [%]	tolerability / clinical signs ([3]; 50 mg/kg intraperitoneal)	peak concentration in the brain [3, 4]	peak concentration in the plasma [3, 4]
COc1ccsc1CNCC[C@@]1(c2ccccn2)CCOC2(CCCC2)C1 [TRV130]	84	15	–	–	–
Nc1cc(Oc2nccc3occc23)ccc1-c1cccc2nccn12 [Compound 40, 5-(Furo[3,2-c]pyridin-4-yloxy)-2-(imidazo[1,2-a]pyridin-5-yl)-aniline]	–	–	well tolerated and no clinical signs were observed	approximately 100 μM	approximately 100 μM

Reference: article PMC6688508 (Journal of medicinal chemistry, 2019)
